Source: US10676508B2, “DEPDC1-derived peptide and vaccine containing same” (OncoTherapy Science, Inc., priority 2015, dated 2020)

Key:
[1] = tested on: peptide-pulsed C1R-A11; experiment: In vitro CTL induction, IFN-gamma ELISPOT assay (HLA-A*1101); type: cell-based, human; conditions: CTLs from HLA-A*1101-positive donors, DCs pulsed with 20 micro-g/ml peptide, day 21, versus unpulsed C1R-A11
Text: Monocyte-derived dendritic cells (DCs) were used as the antigen-presenting cell to induce a cytotoxic T lymphocyte (CTL) response against peptides presented on human leukocyte antigens (HLAs). As described in the other sections, DCs were generated in vitro (Nakahara S et al., Cancer Res 2003, 63(14): 4112-8). Specifically, peripheral-blood mononuclear cells isolated from healthy volunteers (HLA-A*1101-positive) with the Ficoll-Paque plus solution (Pharmacia) were separated by attaching to plastic tissue culture dishes (Becton Dickinson) and concentrated as a monocyte fraction. The monocyte-concentrated population was cultured in the presence of 1000 IU/ml granulocyte macrophage colony-stimulating factor (R&D System) and 1000 IU/ml interleukin (IL)-4 (R&D System) in an AIM-V medium (Invitrogen) containing 2% heat-inactivated autologous serum (AS). After seven days of culturing, the cytokine-induced DCs were pulsed with 20 micro-g/ml each of the synthesized peptides in an AIM-V medium at 37 degrees C. for three hours in the presence of 3 micro-g/ml beta 2-microglobulin.
Next, these peptide-pulsed DCs were inactivated by X-ray irradiation (20 Gy), and mixed in a 1:20 ratio with autologous CD8^+ T cells obtained by positive selection using the CD8 Positive Isolation Kit (Dynal). These culture products were seeded in a 48-well plate (Corning). […]

[2] = tested on: peptide-pulsed C1R-A01 cells; experiment: In vitro CTL induction, IFN-gamma ELISPOT assay (HLA-A*0101); type: cell-based, human; conditions: CTLs from HLA-A*0101-positive donors, DCs pulsed with 20 micro-g/ml peptide, day 21, versus unpulsed C1R-A01
Text: Monocyte-derived dendritic cells (DCs) were used as the antigen-presenting cell to induce a cytotoxic T lymphocyte (CTL) response against peptides presented on human leukocyte antigens (HLAs). As described in the other sections, DCs were generated in vitro (Nakahara S et al., Cancer Res 2003, 63(14): 4112-8). Specifically, peripheral-blood mononuclear cells isolated from healthy volunteers (HLA-A*0101-positive) with the Ficoll-Paque plus solution (Pharmacia) were separated by attaching to plastic tissue culture dishes (Becton Dickinson) and concentrated as a monocyte fraction. The monocyte-concentrated population was cultured in the presence of 1000 IU/ml granulocyte macrophage colony-stimulating factor (R&D System) and 1000 IU/ml interleukin (IL)-4 (R&D System) in an AIM-V medium (Invitrogen) containing 2% heat-inactivated autologous serum (AS). After seven days of culturing, the cytokine-induced DCs were pulsed with 20 micro-g/ml each of the synthesized peptides in an AIM-V medium at 37 degrees C. for three hours in the presence of 3 micro-g/ml beta 2-microglobulin. Next, these peptide-pulsed DCs were inactivated by X-ray irradiation (20 Gy), and mixed in a 1:20 ratio with autologous CD8^+ T cells obtained by positive selection using the CD8 Positive Isolation Kit (Dynal). These culture products were seeded in a 48-well plate (Corning). Each well was made to contain 1.5×10^4 peptide-pulsed DCs, 3×10^5 CD8^+ T cells and 10 ng/ml IL-7 (R&D System) in 0.5 ml of the AIM-V/2% AS medium. Three days later, these culture products were added with a final concentration of 20 IU/ml IL-2 (CHIRON). On day 7 and day 14, T cells were further stimulated with peptide-pulsed autologous DCs. The DCs were prepared every time by the same method as above. On day 21, after the third peptide stimulation, CTL activities were examined against the peptide-pulsed C1R-A01 cells (Tanaka H et al., Br J Cancer 2001, 84(1): 94-9; Umano Y et al., Br J Cancer 2001, 84(8): 1052-7; Uchida N et al., Clin Cancer Res 2004, 10(24): 8577-86; Suda T et al., Cancer Sci 2006, 97(5): 411-9; Watanabe T et al., Cancer Sci 2005, 96(8): 498-506).
To examine specific CTL activity, an IFN-gamma ELISPOT assay and an IFN-gamma ELISA were performed. Specifically, peptide-pulsed C1R-A01 cells (1×10^4 cells/well) were prepared as the stimulator cell. The induced CTLs, i.e., CTL lines and CTL clones, were used as the responder cell. The IFN-gamma ELISPOT assay and IFN-gamma ELISA were performed according to the manufacturer's manual.

[3] = tested on: peptide-pulsed C1R-A01 cells; experiment: IFN-gamma ELISA of CTL line and CTL clone (HLA-A*0101); type: cell-based, human
Procedure: (§1) CTLs were propagated in culture using methods similar to those disclosed by Riddell et al. (Walter E A et al., N Engl J Med 1995, 333(16): 1038-44; Riddell S R et al., Nat Med 1996, 2(2): 216-23). The CTLs were co-cultured in a total of 25 ml AIM-V medium containing 5% AS and 40 ng/ml anti-CD3 antibody with two types of Mitomycin C-treated human B lymphoblastoid cell lines at 5×10^6 cells. One day after beginning of the culturing, 120 IU/ml IL-2 was added to the culture. On days 5, 8 and 11, a fresh AIM-V/5% AS medium containing 30 IU/ml IL-2 was added to the culture (Tanaka H et al., Br J Cancer 2001, 84(1): 94-9; Umano Y et al., Br J Cancer 2001, 84(8): 1052-7; Uchida N et al., Clin Cancer Res 2004, 10(24): 8577-86; Suda T et al., Cancer Sci 2006, 97(5): 411-9; Watanabe T et al., Cancer Sci 2005, 96(8): 498-506).
(§2) CTLs were seeded to make 1 or 10 cells/well in 96 round-bottomed microtiter plates (Nalge Nunc International). The CTLs were co-cultured with two types of Mitomycin C-treated human B lymphoblastoid cell lines at 1×10^4 cells in a total of 150 micro-l/well 5% AS-containing AIM-V medium with 30 ng/ml anti-CD3 antibody and 125 IU/ml IL-2. Ten days later, 50 micro-1 of IL-2 at 500 IU/ml in 5% AS-containing AIM-V medium was added to the medium. […]

[4] = tested on: COS7 cells transfected with DEPDC1 and HLA-A*0101; experiment: Specific CTL activity against target cells expressing DEPDC1 and HLA-A*0101; type: cell-based, African green monkey; conditions: peptide-induced CTL clone
Text: A cDNA encoding the open-reading frame of a target gene or HLA-A*0101 was amplified by PCR. The PCR-amplified product was cloned into an expression vector. Expression vectors were transfected using Lipofectamine 2000 (Invitrogen) following the manufacturer's recommended protocol. Two days after transfection, the transfected cells were harvested using versene (Invitrogen), and used as the stimulator cell for CTL activity assay (5×10^4 cells/well).
(§3) The CTL clone induced with DEPDC1-A01-11-44 (SEQ ID NO: 108) was investigated for its ability to recognize target cells expressing DEPDC1 and the HLA-A*0101 molecule. COS7 cells transfected with both full-length DEPDC1 and the HLA-A*0101 gene were prepared as the target cell. COS7 cells transfected with either full-length DEPDC1 or HLA-A*0101 were prepared as the control.

[5] = tested on: peptide-pulsed C1R-A11; experiment: IFN-gamma ELISA of CTL line and CTL clones (HLA-A*1101); type: cell-based, human
Procedure: as §1, with “5% AS (AIM-V/5% AS) and 40” for “5% AS and 40”, “cell lines (5×10^6 cells). One day” for “cell lines at 5×10^6 cells. One day”
as §2, with “micro-l/well AIM-V/5% AS” for “micro-l/well 5% AS-containing AIM-V”, “later,” for “later, 50 micro-1 of”, “in 50 micro-1 AIM-V/5% AS” for “in 5% AS-containing AIM-V”

[6] = tested on: COS7 cells transfected with DEPDC1 and HLA-A*1101; experiment: Specific CTL activity against target cells expressing DEPDC1 and HLA-A*1101; type: cell-based, African green monkey; conditions: peptide-induced CTL line
Text: A cDNA encoding the open-reading frame of a target gene or HLA-A*1101 was amplified by PCR. The PCR-amplified product was cloned into an expression vector. Either or both of the target gene-expressing vector and the HLA-A*1101-expressing vector were transfected into COS7 cells, which is a cell line negative for the target gene and HLA, using Lipofectamine 2000 (Invitrogen) following the manufacturer's recommended protocol. Two days after transfection, the transfected cells were harvested using versene (Invitrogen), and used as the target cell for CTL activity assay (5×10^4 cells/well).
as §3, with “line” for “clone”, “DEPDC1-A11-9-627” for “DEPDC1-A01-11-44”, “1)” for “108)”, “HLA-A*1101” for “HLA-A*0101”

Sequence	peptide-specific CTL activity (IFN-gamma production, ELISPOT) [1]	peptide-specific CTL activity (IFN-gamma production, ELISPOT) [2]	IFN-gamma production of CTL clone (ELISA) ([3]; CTL clone by limiting dilution, peptide-pulsed C1R-A01 cells)	IFN-gamma production of the CTL line (ELISA) ([3]; CTL line from Well #8, peptide-pulsed versus unpulsed target cells)	CTL activity against control COS7 cells ([4]; COS7 transfected with either full-length DEPDC1 or HLA-A*0101)	CTL activity against COS7 cells expressing both DEPDC1 and HLA-A*0101 [4]	IFN-gamma production of CTL clones (ELISA) ([5]; CTL clones by limiting dilution, peptide-pulsed C1R-A11 cells)	IFN-gamma production of the CTL line (ELISA) ([5]; CTL line from Well #4, peptide-pulsed versus unpulsed target cells)	CTL activity against control COS7 cells ([6]; COS7 transfected with either full-length DEPDC1 or HLA-A*1101)	CTL activity against COS7 cells expressing both DEPDC1 and HLA-A*1101 [6]
ATINKRLCK (a peptide derived from DEPDC1) [SEQ ID NO: 2]	specific IFN-gamma production was not observed	–	–	–	–	–	–	–	–	–
FTAGEAVDWLY (a peptide derived from DEPDC1) [SEQ ID NO: 108]	–	potent IFN-gamma production	Potent IFN-gamma production	potent IFN-gamma production	a significant specific CTL activity was not detected	potent CTL activities	–	–	–	–
MSQNVDMPK [SEQ ID NO: 1]	potent IFN-gamma production	–	–	–	–	–	Potent IFN-gamma production	potent IFN-gamma production	a significant specific CTL activity was not detected	potent CTL activity
